Test results as given in patent US8729047B2, “Compositions for inhibiting redox-sensitive GTPases” (Board of Regents, The University of Texas System, priority 2010, dated 2014).
Where two headings read alike, the source gives them in different places.

Columns and labels:
[1] = target: Rac1 (Homo sapiens, UniProt P63000); test: Competitive binding assay, [3H]GDP-loaded Rho protein titrated with 6-TGDP (FIG. 16A); parameters: made in house; host or cells: E. coli
Experimental: FIG. 16. Kinetic properties of RhoC with 6-TGDP in the presence or absence of a redox agent. All kinetic analyses are described elsewhere herein. (A) ^appKD values of Rac1, RhoA, RhoC, and RhoC C20S for 6-TGDP were estimated to be 7.9, 11.6, 11.8, and 11.2 μM, respectively. ^trueKD values of Rac1, RhoA, […] for 6-TGDP were then calculated to be 5.1, 10.8, 11.1, and 10.5 μM, respectively, by using a compensation equation, ^trueKD for 6-TGDP=^appKD for 6-TGDP/(1+[[^3H]GDP]/^trueKD for GDP) (Heo, J., and Hong, I. (2010) Biochemistry 49, 3965-3976), in conjunction with the values given. […] The GDP dissociation rates from RhoC C20S by NO, .NO2, and N2O3 were estimated to be 0.02×10^−3, 0.05×10^−3, and 0.04×10^−3 s^−1, respectively. […] (D) ^appKD values of RhoC for [^3H]GDP in the presence or absence of DTT were estimated to be 22.4 μM and […], respectively. ^appKD values of C20S RhoC for [^3H]GDP in the presence or absence of DTT were determined to be 24.8 μM and 25.2 μM, respectively. The regression values associated with these fits were >0.8595. All data points associated with vertical standard error bars shown in this figure are the mean values of triplicate measurements.
Transition metal-free assay buffer and vials as described in a previous study (Heo et al. Biochemistry 49, 3965-3976 (2010)) were used for all kinetic assays. The kinetic assay buffer contains the highest grade of 50 mM NaCl, 10 mM MgCl2, 1 mM EDTA, and 0.1 mM DTPA in 50 mM TrisHCl (pH 7.4). Before performance of any of the assays, all protein samples also were dialyzed with a metal-free buffer under anaerobic conditions. As with RhoA and Rac1 (Heo et al. J. Biol. Chem. 280, 31003-31010 (2005)), C20S RhoC were expressed in E. coli and purified using anionic and size exclusion columns.
(a) A competitive binding assay was performed to determine the binding affinity of Rho GTPase and 6-TGDP. The radiolabeled [^3H]GDP-loaded Rho protein (1 μM) was titrated with various concentrations of 6-TGDP. The titrated Rho protein sample then was spotted onto a nitrocellulose membrane. Each membrane was washed three times with the assay buffer, and radioactivity was determined using a Beckman-Coulter scintillation counter. The radioactivity of the sample (Rho protein-bound [^3H]GDP) was converted into, and thus plotted, as the fraction of mol GDP per mol total Rho protein. The apparent dissociation constant (^appKD) of the Rho protein with [^3H]GDP in the presence of 6-TGDP was determined by using Prism software to fit the titration curve to a hyperbola.

[2] = target: T1, RhoA (Homo sapiens, UniProt P61586); test: Guanine nucleotide exchange of [3H]GDP-loaded GTPase with 6-TGDP (FIG. 13A); assay type: binding
T1 construct: made in house; host or cells: E. coli
T1 sequence (P61586 whole entry, species assumed): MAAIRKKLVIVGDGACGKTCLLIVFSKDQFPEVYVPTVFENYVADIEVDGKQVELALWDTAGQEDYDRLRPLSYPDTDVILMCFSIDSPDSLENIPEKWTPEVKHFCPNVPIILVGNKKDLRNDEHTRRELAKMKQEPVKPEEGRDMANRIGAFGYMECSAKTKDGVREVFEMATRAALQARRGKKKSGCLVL
Experimental: (§1) FIG. 13. Guanine nucleotide exchange of small GTPases with 6-TGDP. (A) To monitor 6-TGDP-mediated GTPase GDP dissociation, [^3H]GDP-loaded GTPase (1 μM) was incubated with 6-TGDP (0-2000 μM) for 1 h. (B) To monitor GTPase 6-TGDP dissociation by GDP (0-2000 μM) in the presence and absence of dithiothreitol (DTT), 6-TGDP-loaded GTPase (˜1 μM) was treated with .NO2 (˜3 μM) under anaerobic conditions and was incubated with various concentrations of [^3H]GDP (0-2000 μM) in the presence and absence of DTT (10 mM) for 1 h. For all assays, aliquots were withdrawn and spotted onto nitrocellulose filters. The filters were then washed three times with an assay buffer, and radioactivity was determined using a Beckman-Coulter scintillation counter. The resultant radioactivity (dpm) values associated with GTPase-bound [^3H]GDP were converted into the fraction of mol nucleotide per mol total GTPase. The data presented represent mean and standard error values from triplicate measurements. The apparent dissociation constants (appKD values) of GTPase 6-TGDP association ([^3H]GDP dissociation, A); and 6-TGDP dissociation ([3H]GDP association, B) were obtained by fitting the data to a simple dissociation and association, respectively. […]
(§2) A kinetic assay method using radiolabeled GDP ([^3H]GDP) was established. The apparent dissociation constants (^appKD 6-TGDP) of Rho GTPases (including RhoA, Cdc42, and Rac1/2/3) and Ras with 6-TGDP were determined (FIG. 13). […]
(§3) The true dissociation constant (^trueKD 6-TGDP) of Ras, RhoC, RhoA and Rac1 for 6-TGDP was then calculated to be ˜20.7 pM, 212 μM, 208 μM, and 158 μM [6-TGDP] by using a compensation equation, ^trueKD 6-TGDP=^appKD 6-TGDP/(1+[GDP]/^trueKD GDP) (95), in conjunction with the values given [(^appKD 6-TGDP of Ras, RhoC, RhoA, and Rac1=2300, 230, 224, and 245 μM (FIG. 13) and ^trueKD GDP=9 pM, 12 μM, 13 μM and 1.8 μM, respectively. The ^trueKD GDP of Ras, RhoA and Rac1 was determined previously (Lenzen et al. Biochemistry 37, 7420-7430 (1998); Heo et al. Biochemistry 44, 6573-6585 (2005)) and the ^trueKD GDP of RhoC was further determined. […]

[3] = target: Ras (Homo sapiens, UniProt P01112); test: as above; assay type: binding; conditions: [3H]GDP-loaded GTPase 1 μM, 6-TGDP 0-2000 μM, 1 h, read-out: appKD for 6-TGDP
Sequence of Ras (P01112 whole entry): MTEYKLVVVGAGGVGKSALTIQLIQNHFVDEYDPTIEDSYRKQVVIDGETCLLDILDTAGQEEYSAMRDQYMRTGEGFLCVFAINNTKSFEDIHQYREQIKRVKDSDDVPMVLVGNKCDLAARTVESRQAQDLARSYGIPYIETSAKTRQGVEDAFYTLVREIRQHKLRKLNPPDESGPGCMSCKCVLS
Experimental: as §1, §2, §3

Kd ([1]; [3H]GDP-loaded Rho protein 1 μM titrated with 6-TGDP, read-out: appKD for 6-TGDP): 7.9 µM | Kd ([1]; calculated by compensation equation, read-out: trueKD for 6-TGDP): 5.1 µM | Kd ([2]; [3H]GDP-loaded GTPase 1 μM, 6-TGDP 0-2000 μM, 1 h, FIG. 13A, read-out: appKD for 6-TGDP): 224 µM | Kd ([2]; calculated by compensation equation from appKD 6-TGDP and trueKD GDP, read-out: trueKD 6-TGDP): 208 µM | Kd [3]: 2300 µM
SMILES: Nc1nc2c(ncn2[C@@H]2O[C@H](COP(=O)(O)OP(=O)(O)O)[C@@H](O)[C@H]2O)c(=S)[nH]1 [6-TGDP, 6-thioguanosine diphosphate]
